Experimental data: the NIST ThermoML archive (doi:10.1021/je700096m)
± gives the expanded uncertainty stated by the source.

Test: xn = mol fraction of the nth substance listed
Details: 298.15 K, Liquid

CCCCCCCCCl [1-chlorooctane] + CC(=O)N(C)C
mass density [kg/m3]
Details	x2 = 0.0963	x2 = 0.2006	x2 = 0.2938	x2 = 0.4059	x2 = 0.5022	x2 = 0.602	x2 = 0.7005	x2 = 0.8075	x2 = 0.901
100 kPa	872 ± 1	875.8 ± 1	879.6 ± 0.9	884.87 ± 0.85	890.2 ± 0.8	896.7 ± 0.7	904.1 ± 0.7	913.7 ± 0.6	923.6 ± 0.6
2000 kPa	873.5 ± 1.1	877.2 ± 1	881.1 ± 1	886.2 ± 0.9	891.5 ± 0.8	898.1 ± 0.8	905.4 ± 0.7	914.9 ± 0.7	924.8 ± 0.6
4000 kPa	875 ± 1.2	878.7 ± 1.1	882.5 ± 1	887.6 ± 1	892.9 ± 0.9	899.4 ± 0.8	906.8 ± 0.8	916.3 ± 0.7	926.1 ± 0.6
6000 kPa	876.5 ± 1.2	880.2 ± 1.1	884 ± 1.1	889 ± 1	894.3 ± 0.9	900.8 ± 0.9	908.1 ± 0.8	917.5 ± 0.7	927.3 ± 0.7
8000 kPa	877.9 ± 1.3	881.6 ± 1.2	885.5 ± 1.1	890.4 ± 1	895.8 ± 1	902.2 ± 0.9	909.4 ± 0.8	918.8 ± 0.8	928.5 ± 0.7
10000 kPa	879.5 ± 1.3	883.1 ± 1.2	887 ± 1.2	892 ± 1.1	897.3 ± 1	903.6 ± 1	910.8 ± 0.9	920 ± 0.8	929.8 ± 0.7
12000 kPa	880.9 ± 1.4	884.5 ± 1.3	888.3 ± 1.2	893.3 ± 1.1	898.5 ± 1.1	904.9 ± 1	912.1 ± 0.9	921.3 ± 0.8	931 ± 0.7
14000 kPa	882.3 ± 1.4	885.9 ± 1.3	889.7 ± 1.3	894.6 ± 1.2	899.9 ± 1.1	906.1 ± 1	913.4 ± 1	922.4 ± 0.9	932.2 ± 0.8
15900 kPa	–	–	–	–	–	907.4 ± 1.1	–	–	–
16000 kPa	883.7 ± 1.5	887.3 ± 1.4	891.1 ± 1.3	896 ± 1.2	901.1 ± 1.1	–	914.6 ± 1	923.7 ± 0.9	933.3 ± 0.8
18000 kPa	885 ± 1.5	888.6 ± 1.4	892.4 ± 1.4	897.3 ± 1.3	902.4 ± 1.2	908.7 ± 1.1	915.8 ± 1	924.9 ± 0.9	934.4 ± 0.8
20000 kPa	886.5 ± 1.6	890.1 ± 1.5	893.9 ± 1.4	898.5 ± 1.3	903.8 ± 1.2	910 ± 1.1	917.1 ± 1	926.1 ± 0.9	935.7 ± 0.8

CCCCCCCCCl [1-chlorooctane] + CN(C)C=O
mass density [kg/m3]
Details	x2 = 0.1042	x2 = 0.2009	x2 = 0.2669	x2 = 0.4023	x2 = 0.4992	x2 = 0.6035	x2 = 0.6982	x2 = 0.8002	x2 = 0.9001
100 kPa	871.7 ± 1	875.3 ± 1	877.9 ± 0.9	884.2 ± 0.9	889.7 ± 0.8	896.8 ± 0.7	904.7 ± 0.7	914.9 ± 0.6	927.7 ± 0.6
2000 kPa	873.1 ± 1.1	876.7 ± 1	879.4 ± 1	885.6 ± 0.9	891 ± 0.8	898.2 ± 0.8	906 ± 0.7	916.1 ± 0.7	928.8 ± 0.6
4000 kPa	874.7 ± 1.1	878.2 ± 1.1	880.8 ± 1	887.1 ± 1	892.5 ± 0.9	899.6 ± 0.8	907.5 ± 0.8	917.4 ± 0.7	930.2 ± 0.6
6000 kPa	876.1 ± 1.2	879.7 ± 1.1	882.3 ± 1.1	888.5 ± 1	893.9 ± 0.9	900.9 ± 0.9	908.8 ± 0.8	918.8 ± 0.7	931.4 ± 0.7
7900 kPa	877.6 ± 1.3	–	–	–	–	–	–	–	–
8000 kPa	–	881.1 ± 1.2	883.7 ± 1.1	889.9 ± 1.1	895.3 ± 1	902.3 ± 0.9	910.1 ± 0.8	920.1 ± 0.8	932.6 ± 0.7
9900 kPa	–	–	–	–	–	–	–	921.4 ± 0.8	–
10000 kPa	879.1 ± 1.3	882.7 ± 1.2	885.2 ± 1.2	891.4 ± 1.1	896.8 ± 1	903.7 ± 1	911.4 ± 0.9	–	933.9 ± 0.7
12000 kPa	880.6 ± 1.4	884.1 ± 1.3	886.6 ± 1.2	892.8 ± 1.1	898.1 ± 1.1	905 ± 1	912.7 ± 0.9	922.7 ± 0.8	935.1 ± 0.7
13900 kPa	–	885.4 ± 1.3	–	–	–	–	–	–	–
14000 kPa	882 ± 1.4	–	887.9 ± 1.3	894.1 ± 1.2	899.4 ± 1.1	906.3 ± 1	914 ± 0.9	924 ± 0.9	936.3 ± 0.8
15900 kPa	883.2 ± 1.5	–	889.2 ± 1.3	–	900.7 ± 1.1	–	–	–	–
16000 kPa	–	886.4 ± 1.4	–	895.4 ± 1.2	–	907.7 ± 1.1	915.4 ± 1	925 ± 0.9	937.6 ± 0.8
17900 kPa	–	–	–	896.7 ± 1.3	–	–	–	–	938.6 ± 0.8
18000 kPa	884.6 ± 1.5	888.2 ± 1.4	890.6 ± 1.4	–	902 ± 1.2	908.9 ± 1.1	916.5 ± 1	926.3 ± 0.9	–
20000 kPa	886 ± 1.5	–	891.8 ± 1.4	898 ± 1.3	903.3 ± 1.2	910.3 ± 1.1	917.7 ± 1	927.5 ± 0.9	939.8 ± 0.8
20100 kPa	–	889.6 ± 1.5	–	–	–	–	–	–	–
